Data on one compound can be found in US8202873B2, “2-[4-(pyrazol-4-ylalkyl)piperazin-1-yl]-3-phenyl pyrazines as 5-HT7 receptor antagonists” (Eli Lilly and Company, priority 2007, dated 2012).

Values joined by “and” are separate entries in the source; they are usually repeats but may differ in a detail not shown here. Equal values may be shown once. Some results are limits rather than exact numbers.

The target in one assay is T1, 5-HT1A (Homo sapiens, UniProt P08908).
T1 construct: expressed in transfected cells
T1 sequence (P08908 1-422): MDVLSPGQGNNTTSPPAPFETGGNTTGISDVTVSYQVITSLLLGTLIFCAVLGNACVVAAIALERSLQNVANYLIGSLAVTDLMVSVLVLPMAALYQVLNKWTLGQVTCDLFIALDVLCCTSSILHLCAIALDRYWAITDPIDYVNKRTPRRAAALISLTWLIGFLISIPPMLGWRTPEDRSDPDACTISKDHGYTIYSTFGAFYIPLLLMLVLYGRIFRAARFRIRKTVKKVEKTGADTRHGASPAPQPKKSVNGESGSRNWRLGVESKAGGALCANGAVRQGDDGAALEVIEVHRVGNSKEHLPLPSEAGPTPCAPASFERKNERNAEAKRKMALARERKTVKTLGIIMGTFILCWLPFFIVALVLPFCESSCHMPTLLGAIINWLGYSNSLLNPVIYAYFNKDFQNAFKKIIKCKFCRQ
Nature of the assay: Radioligand receptor binding assay, 5-HT1A. On the procedure: (§1) [^3H] […] The reactions are incubated at room temperature for 3 hr. and then counted in a Trilux Microbeta™ scintillation counter to detect receptor-bound radioligand. Binding data is analyzed by computer-assisted 4 parameter fit analysis (ID Business Solutions Ltd, Guildford, Surrey, UK). […]
(§2) Affinity for other serotonin receptor subtypes as well as for alpha 1 & 2 adrenergic receptors can readily be determined by modification of the above described radioligand receptor binding assay using membranes derived from cells stably expressing the desired receptor subtype including the 5-HT1A, 5-HT1B, and 5-HT1D subtypes, as well as the 5-HT2A, 5-HT2B, 5-HT2C, 5-HT4, 5-HT5, and 5-HT6 receptor subtypes. […] The binding affinities of compounds of the present invention may be determined at these additional receptor types and are found to generally have selectivity ratios ≧2.0 against other serotonergic receptors. […]

In another assay the target is T2, 5-HT7 receptor (Homo sapiens, UniProt P34969).
T2 construct: expressed in transfected cells; host or cells: AV-12 cells
T2 sequence (P34969 whole entry): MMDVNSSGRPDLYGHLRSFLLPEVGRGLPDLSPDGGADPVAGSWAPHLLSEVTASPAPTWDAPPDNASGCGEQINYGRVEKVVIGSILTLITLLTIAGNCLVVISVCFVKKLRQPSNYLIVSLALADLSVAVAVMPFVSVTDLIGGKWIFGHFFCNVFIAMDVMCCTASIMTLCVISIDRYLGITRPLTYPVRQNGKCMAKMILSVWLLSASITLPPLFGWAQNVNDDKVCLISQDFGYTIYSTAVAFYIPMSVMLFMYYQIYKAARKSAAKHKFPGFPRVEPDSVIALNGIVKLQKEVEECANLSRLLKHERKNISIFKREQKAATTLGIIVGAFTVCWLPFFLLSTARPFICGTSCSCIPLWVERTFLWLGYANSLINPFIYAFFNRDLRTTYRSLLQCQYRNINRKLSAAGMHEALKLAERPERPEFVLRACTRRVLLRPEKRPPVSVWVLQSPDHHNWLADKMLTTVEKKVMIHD
The assay is described as follows: 5-HT7 receptor affinity: radioligand binding assay ([3H]5-HT, SPA). Conditions: [3H]5-HT competition binding. On the procedure:
Membranes for affinity and antagonist activity assays are prepared essentially as follows. AV-12 cells, stably expressing the 5-HT7 receptor, are grown as a monolayer in 5×T-150 flasks in DMEM/F12 (3:1) 5% FBS, 20 mM HEPES, […], […]. After growing to 90% confluence the media is removed and replaced with Hybritech media containing 2% horse serum, […] dextran sulfate, 1 mg/mL nucellin, 1 mg/mL human transferrin (partially iron saturated), […], 20 mM HEPES, […] geneticin, 0.04% pluronic F68. The cells are grown overnight to condition the media. The next morning the conditioned media (˜150 mL total) is removed and set aside in a sterile container. The cells are trypsinized and collected in the conditioned media. Fresh suspension media is added to bring the total volume to 500 mL and a cell density of 5×10^5 cells/mL. […]
To prepare membranes, the above pellets are resuspended in ice-cold Tris buffer (20 mM Tris HCl, pH 7.4 at 23° C., 5 mM EDTA) and homogenized with a Wheaton tissue grinder. […] Protein concentrations are determined by the method of Bradford. […]
as §1

For the next assay, the target named is T3, 5-HT2C (Homo sapiens, UniProt P28335).
T3 construct: expressed in transfected cells
T3 sequence (P28335 33-458): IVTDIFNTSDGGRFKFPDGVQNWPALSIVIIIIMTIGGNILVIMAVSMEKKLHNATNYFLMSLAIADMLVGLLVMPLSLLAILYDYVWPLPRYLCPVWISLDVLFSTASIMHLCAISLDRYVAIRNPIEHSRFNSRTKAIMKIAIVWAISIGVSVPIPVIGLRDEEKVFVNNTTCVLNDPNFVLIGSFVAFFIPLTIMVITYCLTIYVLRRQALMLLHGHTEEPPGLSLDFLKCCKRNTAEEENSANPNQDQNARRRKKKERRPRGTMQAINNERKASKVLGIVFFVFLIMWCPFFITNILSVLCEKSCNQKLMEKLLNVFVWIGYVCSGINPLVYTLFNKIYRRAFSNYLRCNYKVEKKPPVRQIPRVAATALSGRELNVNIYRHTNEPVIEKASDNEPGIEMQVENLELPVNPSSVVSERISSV
Nature of the assay: Radioligand receptor binding assay, 5-HT2C. The method, then:
as §1, §2

Assay [1] addresses T4, alpha 1 adrenergic.
T4 construct: Ki; other: alpha 1 adrenergic (second line, r13)
The assay is described as follows: Radioligand receptor binding assay, alpha 1 adrenergic (second line). The settings on record: alpha 1 adrenergic (second line, r13). The method, then:
as §1, §2

In the next assay the target is T5, 5-HT1B (Homo sapiens, UniProt P28222).
T5 construct: expressed in transfected cells
T5 sequence (P28222 whole entry, species assumed): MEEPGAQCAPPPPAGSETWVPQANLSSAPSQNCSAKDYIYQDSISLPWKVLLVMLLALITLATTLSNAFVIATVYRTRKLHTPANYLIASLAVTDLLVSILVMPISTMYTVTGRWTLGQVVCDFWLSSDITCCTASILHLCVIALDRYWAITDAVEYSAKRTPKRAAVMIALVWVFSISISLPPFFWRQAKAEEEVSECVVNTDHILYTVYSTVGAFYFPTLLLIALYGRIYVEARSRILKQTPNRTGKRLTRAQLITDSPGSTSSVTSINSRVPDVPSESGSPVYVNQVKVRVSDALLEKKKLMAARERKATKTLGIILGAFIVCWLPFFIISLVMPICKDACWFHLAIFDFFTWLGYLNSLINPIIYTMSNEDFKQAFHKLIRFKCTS
The assay is described as follows: Radioligand receptor binding assay, 5-HT1B. The method, then: as §1, §2

A further assay has as its target T6, 5-HT6 (Homo sapiens, UniProt P50406).
T6 construct: expressed in transfected cells
The assay is described as follows: Radioligand receptor binding assay, 5-HT6. The method, then: as §1, §2

In assay [2] the target is T7, alpha 1 adrenergic.
T7 construct: Ki; other: alpha 1 adrenergic (first line, r12)
The assay is described as follows: Radioligand receptor binding assay, alpha 1 adrenergic (first line). Conditions: alpha 1 adrenergic (first line, r12). On the procedure: as §1, §2

A further assay concerns the target T8, 5-HT2A (Homo sapiens, UniProt P28223).
T8 construct: expressed in transfected cells
The assay is described as follows: Radioligand receptor binding assay, 5-HT2A. The method, then: as §1, §2

Another assay deals with T9, 5-HT4 (Homo sapiens, UniProt Q13639).
T9 construct: expressed in transfected cells
T9 sequence (Q13639 whole entry, species assumed): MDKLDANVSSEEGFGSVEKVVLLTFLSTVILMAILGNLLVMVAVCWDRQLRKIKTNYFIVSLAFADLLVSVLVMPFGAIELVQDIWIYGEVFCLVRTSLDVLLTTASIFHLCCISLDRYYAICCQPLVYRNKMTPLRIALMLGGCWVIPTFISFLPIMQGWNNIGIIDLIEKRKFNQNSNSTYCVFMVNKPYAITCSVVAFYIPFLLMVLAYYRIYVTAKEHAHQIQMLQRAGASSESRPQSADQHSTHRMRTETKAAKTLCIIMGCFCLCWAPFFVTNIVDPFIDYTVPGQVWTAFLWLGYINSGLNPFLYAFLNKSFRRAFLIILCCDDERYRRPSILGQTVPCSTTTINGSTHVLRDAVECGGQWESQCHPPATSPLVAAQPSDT
The assay is described as follows: Radioligand receptor binding assay, 5-HT4. On the procedure: as §1, §2

The next assay has as its target T10, 5-HT1D (Homo sapiens, UniProt P28221).
T10 construct: expressed in transfected cells
The assay is described as follows: Radioligand receptor binding assay, 5-HT1D. The method, then: as §1, §2

For the next assay, the target named is T11, 5-HT5 (Homo sapiens, UniProt P47898).
T11 construct: expressed in transfected cells
T11 sequence (P47898 whole entry, species assumed): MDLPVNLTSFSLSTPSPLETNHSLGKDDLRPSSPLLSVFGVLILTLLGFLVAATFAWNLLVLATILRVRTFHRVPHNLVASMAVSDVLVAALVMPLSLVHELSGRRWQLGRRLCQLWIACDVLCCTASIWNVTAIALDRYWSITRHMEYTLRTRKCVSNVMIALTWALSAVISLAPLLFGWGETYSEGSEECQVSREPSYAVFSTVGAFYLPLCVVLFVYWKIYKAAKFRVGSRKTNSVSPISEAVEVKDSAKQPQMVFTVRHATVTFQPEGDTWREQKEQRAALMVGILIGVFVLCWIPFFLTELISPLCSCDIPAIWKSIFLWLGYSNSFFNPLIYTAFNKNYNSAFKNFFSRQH
Nature of the assay: Radioligand receptor binding assay, 5-HT5. On the procedure:
as §1, §2

The target in another assay is T12, 5-HT2B (Homo sapiens, UniProt P41595).
T12 construct: expressed in transfected cells
T12 sequence (P41595 whole entry, species assumed): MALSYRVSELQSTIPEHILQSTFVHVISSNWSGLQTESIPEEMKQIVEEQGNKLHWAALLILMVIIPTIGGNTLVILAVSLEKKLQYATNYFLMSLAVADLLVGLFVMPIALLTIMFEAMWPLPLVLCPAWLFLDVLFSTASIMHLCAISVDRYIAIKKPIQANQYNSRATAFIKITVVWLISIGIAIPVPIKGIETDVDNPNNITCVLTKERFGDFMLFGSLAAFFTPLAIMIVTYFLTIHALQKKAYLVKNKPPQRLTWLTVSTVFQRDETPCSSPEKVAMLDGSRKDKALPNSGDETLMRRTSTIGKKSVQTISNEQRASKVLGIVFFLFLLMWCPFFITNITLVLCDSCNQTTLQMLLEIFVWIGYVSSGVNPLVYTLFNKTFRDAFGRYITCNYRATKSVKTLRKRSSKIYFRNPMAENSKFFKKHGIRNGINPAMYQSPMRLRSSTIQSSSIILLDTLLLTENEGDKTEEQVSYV
Nature of the assay: Radioligand receptor binding assay, 5-HT2B. The method, then: as §1, §2

T6 sequence (P50406 whole entry, species assumed): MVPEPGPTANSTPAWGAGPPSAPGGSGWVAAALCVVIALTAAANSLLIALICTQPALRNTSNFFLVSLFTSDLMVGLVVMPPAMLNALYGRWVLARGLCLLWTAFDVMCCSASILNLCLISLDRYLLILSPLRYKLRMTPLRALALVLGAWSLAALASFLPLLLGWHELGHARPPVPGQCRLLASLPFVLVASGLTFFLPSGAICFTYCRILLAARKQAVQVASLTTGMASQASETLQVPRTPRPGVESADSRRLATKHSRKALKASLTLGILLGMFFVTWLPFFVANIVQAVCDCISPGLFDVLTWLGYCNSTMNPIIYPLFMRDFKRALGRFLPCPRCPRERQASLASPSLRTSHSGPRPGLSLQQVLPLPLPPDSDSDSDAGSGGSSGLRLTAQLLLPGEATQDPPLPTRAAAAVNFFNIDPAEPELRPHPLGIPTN
T8 sequence (P28223 whole entry, species assumed): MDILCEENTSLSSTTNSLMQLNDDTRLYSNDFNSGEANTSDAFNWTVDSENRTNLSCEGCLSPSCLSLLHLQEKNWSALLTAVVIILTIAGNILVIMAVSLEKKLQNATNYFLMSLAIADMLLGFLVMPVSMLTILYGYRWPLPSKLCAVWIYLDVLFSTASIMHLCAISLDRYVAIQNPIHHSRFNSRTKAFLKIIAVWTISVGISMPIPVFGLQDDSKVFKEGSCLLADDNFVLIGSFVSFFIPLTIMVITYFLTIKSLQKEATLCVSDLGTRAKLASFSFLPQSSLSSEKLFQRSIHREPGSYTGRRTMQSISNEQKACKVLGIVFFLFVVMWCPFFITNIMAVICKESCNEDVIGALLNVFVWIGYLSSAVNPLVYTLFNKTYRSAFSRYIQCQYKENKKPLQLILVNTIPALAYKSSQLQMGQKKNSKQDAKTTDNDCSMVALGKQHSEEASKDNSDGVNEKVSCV
T10 sequence (P28221 whole entry, species assumed): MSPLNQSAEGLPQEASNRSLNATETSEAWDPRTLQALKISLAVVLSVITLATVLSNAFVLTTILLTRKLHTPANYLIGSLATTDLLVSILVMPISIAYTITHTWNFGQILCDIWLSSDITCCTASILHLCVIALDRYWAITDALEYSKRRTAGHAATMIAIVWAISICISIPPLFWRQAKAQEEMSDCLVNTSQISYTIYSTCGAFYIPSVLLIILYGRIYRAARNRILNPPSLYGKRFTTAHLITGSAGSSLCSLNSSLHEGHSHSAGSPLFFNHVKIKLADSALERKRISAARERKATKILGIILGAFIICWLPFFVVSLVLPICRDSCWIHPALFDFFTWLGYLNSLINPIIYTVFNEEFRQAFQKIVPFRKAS

In the case of `Cn1cc(CN2CCN(c3nccnc3-c3cccc(F)c3F)CC2)cn1` [Example 142, 4-(1-Methyl-1H-pyrazol-4-ylmethyl)-3′-(2,3-difluorophenyl)-3,4,5,6-tetrahydro-2H-[1,2′]bipyrazine], the Ki was 1.25 µM on 5-HT1A; ~0.044 µM and 0.044 µM on 5-HT7 receptor; over 8.2 µM at 5-HT2C; 0.933 µM on alpha 1 adrenergic [1]; over 3.58 µM at 5-HT1B; over 1.79 µM on 5-HT6. In addition, the inhibitory constant (Ki) on alpha 1 adrenergic [2] is over 1.44 µM; on 5-HT2A, over 7.47 µM; on 5-HT4, over 6.31 µM; at 5-HT1D, over 2.4 µM; at 5-HT5, over 7.02 µM; on 5-HT2B it was over 3.16 µM.
